From patent publication US12448389B2, “BRM targeting compounds and associated methods of use” (Prelude Therapeutics Incorporated, priority 2020, dated 2025) come the findings set out here.

One assay addresses T1, SMARCA2-HiBiT (Homo sapiens, UniProt P51531).
T1 construct: SMARCA2-HiBiT knock-in Hela monoclonal cell (CS302366); host or cells: HeLa monoclonal knock-in line (CRISPR HiBiT knock-in at the endogenous locus, heterozygous)
Nature of the assay: SMARCA2 HiBiT degradation assay in HeLa cells. Format: cell-based. The note with it: 18 hours incubation; for DC50: read-out: HeLa_HiBit-SM2 DC50; for Dmax: HeLa, read-out: HeLa-HiBit-SM2 Dmax (%). The method, boiled down:
(§1)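 HeLa monoclonal lines with heterozygous HiBiT knock-in were seeded at 2500 cells/well in EMEM with 10% FBS and treated with compound for 18 h at 37 °C. Remaining tagged protein was measured by Nano-Glo HiBiT lytic luminescence after 30–60 min at RT, and values came from curve fitting.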

The next assay deals with T2, SMARCA4-HiBiT (Homo sapiens, UniProt P51532).
T2 construct: SMARCA4-HiBiT knock-in Hela monoclonal cell (CS3023226); host or cells: HeLa monoclonal knock-in line (CRISPR HiBiT knock-in at the endogenous locus, heterozygous)
T2 sequence (P51532 whole entry): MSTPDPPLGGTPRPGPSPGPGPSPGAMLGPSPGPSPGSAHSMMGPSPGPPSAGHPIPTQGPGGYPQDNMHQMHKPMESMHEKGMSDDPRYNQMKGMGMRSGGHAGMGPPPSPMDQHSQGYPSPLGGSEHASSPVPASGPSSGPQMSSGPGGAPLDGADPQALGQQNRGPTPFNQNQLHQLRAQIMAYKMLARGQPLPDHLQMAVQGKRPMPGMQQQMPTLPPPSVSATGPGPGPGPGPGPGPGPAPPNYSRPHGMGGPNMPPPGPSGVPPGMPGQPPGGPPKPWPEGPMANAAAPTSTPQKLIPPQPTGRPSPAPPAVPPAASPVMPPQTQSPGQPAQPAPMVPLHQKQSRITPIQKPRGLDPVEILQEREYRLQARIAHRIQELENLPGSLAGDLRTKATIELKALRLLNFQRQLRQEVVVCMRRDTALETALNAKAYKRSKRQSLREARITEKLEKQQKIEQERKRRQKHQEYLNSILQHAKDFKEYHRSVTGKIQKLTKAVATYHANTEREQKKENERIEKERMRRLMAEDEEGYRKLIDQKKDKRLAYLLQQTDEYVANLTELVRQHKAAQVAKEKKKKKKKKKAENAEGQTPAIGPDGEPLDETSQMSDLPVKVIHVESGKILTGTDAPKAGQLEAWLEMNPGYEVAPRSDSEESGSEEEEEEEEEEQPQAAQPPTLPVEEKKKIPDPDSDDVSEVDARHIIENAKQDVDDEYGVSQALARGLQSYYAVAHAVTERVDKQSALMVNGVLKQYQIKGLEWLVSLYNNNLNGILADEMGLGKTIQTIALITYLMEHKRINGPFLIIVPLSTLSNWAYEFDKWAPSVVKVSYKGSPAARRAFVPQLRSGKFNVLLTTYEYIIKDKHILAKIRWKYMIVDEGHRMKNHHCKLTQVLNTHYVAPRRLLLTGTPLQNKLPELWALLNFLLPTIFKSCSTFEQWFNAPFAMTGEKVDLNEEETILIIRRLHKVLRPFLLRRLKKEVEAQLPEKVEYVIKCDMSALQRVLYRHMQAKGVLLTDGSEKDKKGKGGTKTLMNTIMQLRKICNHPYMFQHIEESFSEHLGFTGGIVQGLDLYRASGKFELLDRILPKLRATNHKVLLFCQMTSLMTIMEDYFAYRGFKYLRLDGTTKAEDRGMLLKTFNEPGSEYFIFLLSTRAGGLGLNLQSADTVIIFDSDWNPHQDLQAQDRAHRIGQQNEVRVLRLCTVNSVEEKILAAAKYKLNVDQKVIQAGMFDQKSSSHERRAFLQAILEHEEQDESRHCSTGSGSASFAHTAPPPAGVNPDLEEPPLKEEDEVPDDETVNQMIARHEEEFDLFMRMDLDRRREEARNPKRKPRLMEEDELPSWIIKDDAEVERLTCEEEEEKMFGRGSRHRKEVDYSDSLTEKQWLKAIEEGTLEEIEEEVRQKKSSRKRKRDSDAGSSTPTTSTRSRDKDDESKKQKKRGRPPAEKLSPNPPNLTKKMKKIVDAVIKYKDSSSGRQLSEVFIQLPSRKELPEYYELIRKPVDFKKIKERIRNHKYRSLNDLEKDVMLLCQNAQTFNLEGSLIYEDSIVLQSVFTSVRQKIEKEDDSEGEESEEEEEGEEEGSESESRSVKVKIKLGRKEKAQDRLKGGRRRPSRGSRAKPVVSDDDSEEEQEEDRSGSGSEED
Nature of the assay: SMARCA4 HiBiT degradation assay in HeLa cells. It counts as cell-based. The note with it: 18 hours incubation; for DC50: read-out: HeLa-HiBit-SM4 DC50; for Dmax: HeLa, read-out: HeLa-HiBit-SM4 Dmax (%). A digest of the protocol:
as §1

SMILES strings stand for the structures. Some results are limits rather than exact numbers.

T1 sequence (P51531 whole entry): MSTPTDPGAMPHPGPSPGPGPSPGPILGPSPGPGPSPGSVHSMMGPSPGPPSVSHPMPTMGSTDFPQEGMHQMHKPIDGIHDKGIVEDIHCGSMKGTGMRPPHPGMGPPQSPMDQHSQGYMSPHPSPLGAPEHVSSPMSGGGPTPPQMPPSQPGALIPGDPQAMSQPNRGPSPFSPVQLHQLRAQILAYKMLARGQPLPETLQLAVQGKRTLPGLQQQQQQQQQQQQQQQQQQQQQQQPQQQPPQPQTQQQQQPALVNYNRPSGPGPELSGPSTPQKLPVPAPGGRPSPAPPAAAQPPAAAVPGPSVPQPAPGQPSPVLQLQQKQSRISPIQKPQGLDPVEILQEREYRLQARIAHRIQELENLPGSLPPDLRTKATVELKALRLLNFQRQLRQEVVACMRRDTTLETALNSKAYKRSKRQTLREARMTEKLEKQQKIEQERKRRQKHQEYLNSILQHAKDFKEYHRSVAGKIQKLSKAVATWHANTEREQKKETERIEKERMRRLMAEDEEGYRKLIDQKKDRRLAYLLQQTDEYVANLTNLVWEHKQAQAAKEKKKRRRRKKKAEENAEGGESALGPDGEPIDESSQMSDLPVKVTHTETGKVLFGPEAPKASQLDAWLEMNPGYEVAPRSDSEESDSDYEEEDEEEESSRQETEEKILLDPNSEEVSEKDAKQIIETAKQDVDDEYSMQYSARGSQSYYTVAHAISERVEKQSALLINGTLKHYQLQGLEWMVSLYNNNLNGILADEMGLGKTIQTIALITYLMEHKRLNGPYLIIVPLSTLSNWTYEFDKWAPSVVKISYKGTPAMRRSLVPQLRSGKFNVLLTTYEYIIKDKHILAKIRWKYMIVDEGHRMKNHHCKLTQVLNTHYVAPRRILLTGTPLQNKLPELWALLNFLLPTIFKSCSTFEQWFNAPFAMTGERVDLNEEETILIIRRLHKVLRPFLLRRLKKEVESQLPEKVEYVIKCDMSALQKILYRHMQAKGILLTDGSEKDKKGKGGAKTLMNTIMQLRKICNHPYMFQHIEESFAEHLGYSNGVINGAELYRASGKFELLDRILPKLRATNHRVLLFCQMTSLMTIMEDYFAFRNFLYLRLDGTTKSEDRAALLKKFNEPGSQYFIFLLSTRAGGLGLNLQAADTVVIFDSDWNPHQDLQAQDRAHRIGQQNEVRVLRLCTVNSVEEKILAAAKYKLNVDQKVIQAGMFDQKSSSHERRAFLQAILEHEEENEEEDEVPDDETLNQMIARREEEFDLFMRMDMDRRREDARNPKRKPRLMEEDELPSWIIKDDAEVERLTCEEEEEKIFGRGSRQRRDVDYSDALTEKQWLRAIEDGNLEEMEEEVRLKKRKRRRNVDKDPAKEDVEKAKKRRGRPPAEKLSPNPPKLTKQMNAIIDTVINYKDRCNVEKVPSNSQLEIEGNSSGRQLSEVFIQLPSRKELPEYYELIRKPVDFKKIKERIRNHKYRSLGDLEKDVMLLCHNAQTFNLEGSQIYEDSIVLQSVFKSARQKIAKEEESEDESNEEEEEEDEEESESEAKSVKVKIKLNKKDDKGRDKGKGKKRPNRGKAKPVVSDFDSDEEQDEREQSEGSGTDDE

By DC50 is commonly meant the concentration at which degradation of the target reaches its halfway point. One may read the Dmax as the greatest extent of degradation seen. For `C[C@H]1CN2c3cc(-c4ccccc4O)nnc3NC[C@H]2CN1C(=O)N1CCN(CC2CCN(c3ccc4c(c3)C(=O)N(C3CCC(=O)NC3=O)C4)CC2)CC1` (stereo partly drawn) [Example 99, 3-(6-(4-((4-((6aS,9S)-2-(2-hydroxyphenyl)-9-methyl-6,6a,7,8,9,10-hexahydro-5H-pyrazino[1′,2′:4,5]pyrazino[2,3-c]pyridazine-8-carbonyl)piperazin-1-yl)methyl)piperidin-1-yl)-1-oxoisoindolin-2-yl)piperidine-2,6-dione], at SMARCA2-HiBiT, the DC50 was less than 10 nM and the Dmax was more than 85%. Further, on SMARCA4-HiBiT, the DC50 lay in the range of 10 to 100 nM and the greatest degradation seen (Dmax) lay in the range of 75 to 85%.
For `O=C1CCC(N2Cc3ccc(N4CCC(CN5CCN(C(=O)N6CCN7c8cc(-c9ccccc9O)nnc8NC[C@H]7C6)C(C(F)(F)F)C5)CC4)cc3C2=O)C(=O)N1` (stereo partly drawn) [Example 100, 3-(6-(4-((4-((S)-2-(2-hydroxyphenyl)-6,6a,7,8,9,10-hexahydro-5H-pyrazino[1′,2′:4,5]pyrazino[2,3-c]pyridazine-8-carbonyl)-3-(trifluoromethyl)piperazin-1-yl)methyl)piperidin-1-yl)-1-oxoisoindolin-2-yl)piperidine-2,6-dione], the results for the DC50 on SMARCA2-HiBiT and on SMARCA4-HiBiT were less than 10 nM and 10 to 100 nM, respectively. Moreover, the Dmax on SMARCA2-HiBiT and on SMARCA4-HiBiT was 75 to 85% each time.
Consider `O=C1CCC(N2Cc3ccc(N4CCC(CN5CC6(C5)CN(C(=O)N5CCN7c8cc(-c9ccccc9O)nnc8NC[C@H]7C5)C6)CC4)cc3C2=O)C(=O)N1` (stereo partly drawn) [Example 101, 3-(6-(4-((6-((S)-2-(2-hydroxyphenyl)-6,6a,7,8,9,10-hexahydro-5H-pyrazino[1′,2′:4,5]pyrazino[2,3-c]pyridazine-8-carbonyl)-2,6-diazaspiro[3.3]heptan-2-yl)methyl)piperidin-1-yl)-1-oxoisoindolin-2-yl)piperidine-2,6-dione], for which, on SMARCA2-HiBiT, the DC50 is less than 10 nM and the greatest degradation seen (Dmax) was in the range of 75 to 85%. In addition, on SMARCA4-HiBiT, the DC50 was 10 to 100 nM and the Dmax lay within 75 to 85%.
As for `O=C1CCC(N2Cc3ccc(N4CCC(CN5CCN(C(=O)N6CCN7c8cc(-c9ccccc9O)nnc8NC[C@H]7C6)CC5C(F)(F)F)CC4)cc3C2=O)C(=O)N1` (stereo partly drawn) [Example 102, 3-(6-(4-((4-((S)-2-(2-hydroxyphenyl)-6,6a,7,8,9,10-hexahydro-5H-pyrazino[1′,2′:4,5]pyrazino[2,3-c]pyridazine-8-carbonyl)-2-(trifluoromethyl)piperazin-1-yl)methyl)piperidin-1-yl)-1-oxoisoindolin-2-yl)piperidine-2,6-dione], the DC50 on SMARCA2-HiBiT and on SMARCA4-HiBiT was less than 10 nM in each case. Further, the Dmax at SMARCA2-HiBiT was more than 85%; at SMARCA4-HiBiT, 75 to 85%.
Turning to `O=C1CCC(N2Cc3ccc(N4CCC(CN5C6CCC5CN(C(=O)N5CCN7c8cc(-c9ccccc9O)nnc8NC[C@H]7C5)C6)CC4)cc3C2=O)C(=O)N1` (stereo partly drawn) [Example 103, 3-(6-(4-((3-((S)-2-(2-hydroxyphenyl)-6,6a,7,8,9,10-hexahydro-5H-pyrazino[1′,2′:4,5]pyrazino[2,3-c]pyridazine-8-carbonyl)-3,8-diazabicyclo[3.2.1]octan-8-yl)methyl)piperidin-1-yl)-1-oxoisoindolin-2-yl)piperidine-2,6-dione], the DC50 on SMARCA2-HiBiT is less than 10 nM; on SMARCA4-HiBiT, 10 to 100 nM. Further, the greatest degradation seen (Dmax) on SMARCA2-HiBiT and at SMARCA4-HiBiT was 75 to 85% in each case.
In the case of `CC1CN(CC2CCN(c3ccc4c(c3)C(=O)N(C3CCC(=O)NC3=O)C4)CC2)CCN1C(=O)N1CCN2c3cc(-c4ccccc4O)nnc3NC[C@H]2C1` (stereo partly drawn) [Example 104, 3-(6-(4-((4-((S)-2-(2-hydroxyphenyl)-6,6a,7,8,9,10-hexahydro-5H-pyrazino[1′,2′:4,5]pyrazino[2,3-c]pyridazine-8-carbonyl)-3-methylpiperazin-1-yl)methyl)piperidin-1-yl)-1-oxoisoindolin-2-yl)piperidine-2,6-dione], the DC50 on SMARCA2-HiBiT and on SMARCA4-HiBiT was less than 10 nM throughout. The Dmax at SMARCA2-HiBiT is more than 85%; on SMARCA4-HiBiT it was 75 to 85%.
Consider `CC1(C)CN(CC2CCN(c3ccc4c(c3)C(=O)N(C3CCC(=O)NC3=O)C4)CC2)CCN1C(=O)N1CCN2c3cc(-c4ccccc4O)nnc3NC[C@H]2C1` (stereo partly drawn) [Example 105, 3-(6-(4-((4-((S)-2-(2-hydroxyphenyl)-6,6a,7,8,9,10-hexahydro-5H-pyrazino[1′,2′:4,5]pyrazino[2,3-c]pyridazine-8-carbonyl)-3,3-dimethylpiperazin-1-yl)methyl)piperidin-1-yl)-1-oxoisoindolin-2-yl)piperidine-2,6-dione], for which, on SMARCA2-HiBiT, the DC50 was less than 10 nM and the greatest degradation seen (Dmax) is more than 85%. Further, at SMARCA4-HiBiT, the half-maximal degradation concentration (DC50) is less than 10 nM and the maximal degradation (Dmax) is more than 85%.
Take `CC1CN(C(=O)N2CCN3c4cc(-c5ccccc5O)nnc4NC[C@H]3C2)CCN1CC1CCN(c2ccc3c(c2)C(=O)N(C2CCC(=O)NC2=O)C3)CC1` (stereo partly drawn) [Example 106, 3-(6-(4-((4-((S)-2-(2-hydroxyphenyl)-6,6a,7,8,9,10-hexahydro-5H-pyrazino[1′,2′:4,5]pyrazino[2,3-c]pyridazine-8-carbonyl)-2-methylpiperazin-1-yl)methyl)piperidin-1-yl)-1-oxoisoindolin-2-yl)piperidine-2,6-dione]: the half-maximal degradation concentration (DC50) on SMARCA2-HiBiT and at SMARCA4-HiBiT was less than 10 nM each time. For the same compound, the Dmax on SMARCA2-HiBiT is more than 85%; on SMARCA4-HiBiT, 75 to 85%.
Regarding `O=C1CCC(N2Cc3ccc(N4CC(CN5CCN(C(=O)N6CCN7c8cc(-c9ccccc9O)nnc8NC[C@H]7C6)CC5)C4)cc3C2=O)C(=O)N1` (stereo partly drawn) [Example 107, 3-(6-(3-((4-((S)-2-(2-hydroxyphenyl)-6,6a,7,8,9,10-hexahydro-5H-pyrazino[1′,2′:4,5]pyrazino[2,3-c]pyridazine-8-carbonyl)piperazin-1-yl)methyl)azetidin-1-yl)-1-oxoisoindolin-2-yl)piperidine-2,6-dione], at SMARCA2-HiBiT, the DC50 was less than 10 nM and the greatest degradation seen (Dmax) was more than 85%. Also, at SMARCA4-HiBiT, the 50% degradation concentration (DC50) lay in the range of 10 to 100 nM and the Dmax fell in the range of 75 to 85%.
The corresponding values for `O=C1CCC(N2Cc3ccc(N4CC(CN5C[C@@H]6[C@H](C5)[C@H]6CN5CCN6c7cc(-c8ccccc8O)nnc7NC[C@H]6C5)C4)cc3C2=O)C(=O)N1` (stereo partly drawn) [Example 108, 3-(6-(3-(((1R,5S,6r)-6-(((S)-2-(2-hydroxyphenyl)-5,6,6a,7,9,10-hexahydro-8H-pyrazino[1′,2′:4,5]pyrazino[2,3-c]pyridazin-8-yl)methyl)-3-azabicyclo[3.1,0]hexan-3-yl)methyl)azetidin-1-yl)-1-oxoisoindolin-2-yl)piperidine-2,6-dione] are less than 10 nM, more than 85%, less than 10 nM and more than 85%.
With `O=C1CCC(N2C(=O)c3ccc(N4CC(CN5C[C@@H]6[C@H](C5)[C@H]6CN5CCN6c7cc(-c8ccccc8O)nnc7NC[C@H]6C5)C4)cc3C2=O)C(=O)N1` (stereo partly drawn) [Example 109, 2-(2,6-dioxopiperidin-3-yl)-5-(3-(((1R,5S,6r)-6-(((S)-2-(2-hydroxyphenyl)-5,6,6a,7,9,10-hexahydro-8H-pyrazino[1′,2′:4,5]pyrazino[2,3-c]pyridazin-8-yl)methyl)-3-azabicyclo[3.1.0]hexan-3-yl)methyl)azetidin-1-yl)isoindoline-1,3-dione], at SMARCA2-HiBiT, the DC50 is less than 10 nM and the Dmax is more than 85%. Also, on SMARCA4-HiBiT, the DC50 is less than 10 nM and the greatest degradation seen (Dmax) is more than 85%.
For the compound `O=C1CCC(N2Cc3ccc(N4CCC(CN5CCN(C(=O)N6CCN7c8cc(-c9ccccc9O)nnc8NC[C@H]7C6)C(CO)C5)CC4)cc3C2=O)C(=O)N1` (stereo partly drawn) [Example 110, 3-(6-(4-((3-(hydroxymethyl)-4-((S)-2-(2-hydroxyphenyl)-6,6a,7,8,9,10-hexahydro-5H-pyrazino[1′,2′:4,5]pyrazino[2,3-c]pyridazine-8-carbonyl)piperazin-1-yl)methyl)piperidin-1-yl)-1-oxoisoindolin-2-yl)piperidine-2,6-dione], on SMARCA2-HiBiT, the DC50 was less than 10 nM and the greatest degradation seen (Dmax) is more than 85%. At SMARCA4-HiBiT, the 50% degradation concentration (DC50) lay in the range of 10 to 100 nM and the Dmax was in the range of 75 to 85%.
The corresponding values for `O=C1CCC(N2Cc3ccc(N4CCOC(CN5CCN(C(=O)N6CCN7c8cc(-c9ccccc9O)nnc8NC[C@H]7C6)CC5)C4)cc3C2=O)C(=O)N1` (stereo partly drawn) [Example 111, 3-(6-(2-((4-((S)-2-(2-hydroxyphenyl)-6,6a,7,8,9,10-hexahydro-5H-pyrazino[1′,2′:4,5]pyrazino[2,3-c]pyridazine-8-carbonyl)piperazin-1-yl)methyl)morpholino)-1-oxoisoindolin-2-yl)piperidine-2,6-dione] are less than 10 nM, 50 to 75%, 10 to 100 nM and 50 to 75%.
The corresponding values for `C[C@H]1CN(CC2CCN(c3ccc4c(c3)C(=O)N(C3CCC(=O)NC3=O)C4)CC2)CCN1C(=O)N1CCN2c3cc(-c4ccccc4O)nnc3NC[C@H]2C1` (stereo partly drawn) [Example 112, 3-(6-(4-(((S)-4-((S)-2-(2-hydroxyphenyl)-6,6a,7,8,9,10-hexahydro-5H-pyrazino[1′,2′:4,5]pyrazino[2,3-c]pyridazine-8-carbonyl)-3-methylpiperazin-1-yl)methyl)piperidin-1-yl)-1-oxoisoindolin-2-yl)piperidine-2,6-dione] are less than 10 nM, more than 85%, less than 10 nM and 75 to 85%.
